Experimental data: patent US4444776A, “Dipyrido (4,3-B) (3,4-F) indoles, process for obtaining them, therapeutical use and pharmaceutical compositions” (priority 1977, dated 1984)

Columns and labels:
[1] = test system: DNA synthesis in HS5 cells; assay: Test 6: action on DNA synthesis (14C methyl-thymidine incorporation); format: cell-based, hamster; settings: in the hours following its addition
Description: Test 6: Action on the macromolecular syntheses
The action of the compounds according to the invention was studied by the incorporation of precursors marked by radioactive isotopes:
^14 C methyl-thymidine for studying the DNA synthesis
These precursors were given for a period of 30 minutes at varying times after the addition of the product to be tested.
The incorporation is measured after lysis of the cells for 1% of sodium dodecylsulfate and precipitation by 5% of trichloroacetic acid. The […] precipitate was collected on glass fibre Whatman GF/A filters. The filters were dried and counted in a liquid scintillation spectrometer.

L1210 leukemia [2] = assay: Test 15: L1210 leukemia, compound of formula 8 (Table XI); format: in vivo, mouse; settings: for ILS % / MST / Range of death: 50 mg/kg
Description: The proceeding of test 1 was repeated with the compound of formula 8 obtained according to example 1, i.e. 5,11-dimethyl-dipyrido[4,3-b][3,4-f]indole. In this test, the compound of formula 8 was injected four days after the inoculation of the cells (50 mg/kg). The results are shown in table XI wherein the results obtained with the same compound injected one day after the cell inoculation are also reported (see experiment no. 2 in table I).

Cl3/8 cells = assay: Test 5: cytotoxic effect in vitro, Cl3/8 cells; format: cell-based, hamster
Description: Test 5: Cytotoxic effect in vitro
The cytotoxic effects of the compounds according to the invention were tested in vitro on cultures of hamster, human and mouse cells.
In particular, the BHK21 strain of hamster cells and a clone derived from this strain transformed by Hamster Sarcoma Virus HS5 clone) were used.
5 hours later, the cells were well attached to the plastic support, and the products to be tested were added, dilutions having been made thereof in water or in DMSO (dimethylsulfoxide) if the product is sparingly soluble in water. In this latter case, a control was made with the same final concentration of DMSO in the culture medium.
The state of the cells was examined 24, 48 and 72 hours afterwards.

L1210 cells = assay: Test 19: effect of time of administration, L1210 (Table XIV); format: in vivo, mouse; parameters: MST: unit not given beside the values; settings: 20 mg/kg IP
Source text: Test 19: Effect of the time of administration of compound 21
The non-protective effect at day+7 could be explained by the fact that some cells migrate through a compartment inaccessible to the drug (as postulated by J. B. Le Pecq for the 9-hydroxy-ellipticine).

L1210 leukemia [3] = assay: Test 18: dose-L1210 antitumoral activity of compound 21; format: in vivo, mouse
Source text: Test 18: Relationship between dose and L1210 antitumoral activity of compound 21 […]

Lewis carcinoma (3LL) = assay: Test 13: Lewis carcinoma, antimetastasic effect; format: in vivo, BDF1 mice; settings: for MST: controls 25
Description: "carcinome pulmonaire de Lewis" (3LL), K. SUGIURA and C. C. STOCK," Cancer Res. 1955 15 38-51.
In this test, cells (10^6 cells) removed from a tumour-carrying mouse were injected into mice(BDF1) by the IM route. The mice developed, 10 to 15 days after the inoculation, a tumour at the spot where the injection was made. On the other hand, these cells made metastasis in the lung, forming colonies on the pulmonary surface. The antitumoral and antimetastasic effect of a product may therefore be judged on mice thus treated.
Investigation of the antimetastasic effect of the compounds of examples 7 and 8 of the invention
10^6 cells taken from a tumour-carrying mouse were injected by the IM route (left-band paw) into groups of 10 mice and the compounds to be tested were inoculated by the IP route on day J+5 by single or fractioned injection. The mean survival time (MST) and the increased life span (ILS %) were determined.

L 1210 leukemia = assay: Test 11: L 1210 leukemic mice, examples 7 and 8 (Table VIII); format: in vivo, mouse; parameters: MTS: unit not given beside the values; settings: J+1
Description: This test was carried out with 10^3, 10^4 and 10^5 leukemic cells on day J. This test was also carried out with the compound of example 7, i.e. 1-[(γ-diethylaminopropyl)amino]-5-methyl-dipyrido [4,3-b][3,4-f] indole (compound 21).

L1210 leukemia [4] = assay: Test 17: length of substituting chain, L1210 (Table XIII); format: in vivo, mouse
Description: Test 17: Relationship between the length of the substituting chain and the activity.
However compound 21 is less toxic (50 mg/kg for compound 21 and 25 mg/kg for compound 23), it has a higher ILS% than compound 23 and 1 mouse survived up to 60 days.

[5] = 4 injections J+5+6+10+11, 2.5 mg/kg each

For Cc1c2ccncc2c(C)c2c1[nH]c1ccncc12 [Example 1, 5,11-dimethyl dipyrido [4,3-b][3,4-f] indole], the “DNA and RNA syntheses” value [1] was “reduces very rapidly”, the ILS % (L1210 leukemia [2]; 10^4 cells, day +1) was 11.8% and the MST (L1210 leukemia [2]; 10^4 cells, day +1) was 12.3 days. The Range of death (L1210 leukemia [2]; 10^4 cells, day +1) was 11-14, the ILS % (L1210 leukemia [2]; 10^4 cells, day +4) was 14.7% and the MST (L1210 leukemia [2]; 10^4 cells, day +4) was 12 days. The Range of death (L1210 leukemia [2]; 10^4 cells, day +4) was 10-16, the ILS % (L1210 leukemia [2]; 10^5 cells, day +1) was 38.1% and the MST (L1210 leukemia [2]; 10^5 cells, day +1) was 12.85 days. For the same molecule, the Range of death (L1210 leukemia [2]; 10^5 cells, day +1) was 10-13, the ILS % (L1210 leukemia [2]; 10^5 cells, day +4) was 15.7% and the MST (L1210 leukemia [2]; 10^5 cells, day +4) was 10.3 days. The Range of death (L1210 leukemia [2]; 10^5 cells, day +4) was 10-11, the ILS % (L1210 leukemia [2]; 10^6 cells, day +1) was 47.3% and the MST (L1210 leukemia [2]; 10^6 cells, day +1) was 11.5 days. For the same molecule, the Range of death (L1210 leukemia [2]; 10^6 cells, day +1) was 9-15, the ILS % (L1210 leukemia [2]; 10^6 cells, day +4) was 34.3% and the MST (L1210 leukemia [2]; 10^6 cells, day +4) was 9 days. The Range of death (L1210 leukemia [2]; 10^6 cells, day +4) was 8-13 and the “increased life span (ILS %), early vs late administration” value (L1210 leukemia [2]; product given earlier after the cells inoculum) was “higher when the product was given earlier”.

With CCN(CC)CCCNc1nccc2c(C)c3[nH]c4ccncc4c3cc12 [Example 7, 1-(γ-diethylaminopropyl)amino-5-methyl-dipyrido-[4,3-b][3,4-f] indole] the “cytotoxic activity compared with 2-methyl-9-hydroxy-ellipticinium acetate and 9-hydroxy-ellipticine” value (Cl3/8 cells; Table III summary) was “just as active as the already known derivatives”, the “activity compared with products presently used as antitumoral agents in lower animals” value (Cl3/8 cells; general statement) was “just as active, or more so” and the ILS % (L1210 cells; day +2) was 56.4%. For the same molecule, the MST (L1210 cells; day +2) was 15.8, the Range of death (L1210 cells; day +2, 10^4 cells) was 15-17 and the MST (L1210 cells; day +3) was 14.4. For the same molecule, the Range of death (L1210 cells; day +3) was 12-17, the ILS % (L1210 cells; day +3, listed as BD 40) was 43.0% and the ILS % (L1210 cells; day +3, listed as Compound 21) was 43%. The ILS % (L1210 cells; day +4) was 22.8%, the MST (L1210 cells; day +4) was 12.4 and the Range of death (L1210 cells; day +4) was 10-14. The ILS % (L1210 cells; day +5) was 17.8%, the MST (L1210 cells; day +5) was 11.9 and the Range of death (L1210 cells; day +5) was 10-13. The ILS % (L1210 cells; day +6) was 20.8%, the MST (L1210 cells; day +6) was 12.2 and the Range of death (L1210 cells; day +6) was 10-14. The MST (L1210 cells; day +7) was 10.3, the Range of death (L1210 cells; day +7) was 10-13 and the ILS % (L1210 cells; day +7, listed as BD 40) was 2.0%. For the same molecule, the ILS % (L1210 cells; day +7, listed as Compound 21) was 2%, the ILS (L1210 leukemia [3]; 5 mg/kg) was 87% and the ILS (L1210 leukemia [3]; 10 mg) was 52%. The “inoculated mice surviving up to 60 days” value (L1210 leukemia [3]; 20 mg per kg) was 20%, the ILS (L1210 leukemia [3]; 20 mg/kg) was 75% and the “inoculated mice surviving up to 60 days” value (L1210 leukemia [3]; 100mg (so in the source)) was 10%. For the same molecule, the ILS % (Lewis carcinoma (3LL); 1 injection J+5, 10 mg/kg) was 30.8%, the MST (Lewis carcinoma (3LL); 1 injection J+5, 10 mg/kg) was 32.7 and the ILS % (Lewis carcinoma (3LL); [5]) was 9.6%. For the same molecule, the MST (Lewis carcinoma (3LL); [5]) was 27.4, the “protective action concerning metastasic pulmonary invasion of the lung” value (Lewis carcinoma (3LL); IP from J+5) was “give a protective action” and the pulmonary metastases counted (Lewis carcinoma (3LL); one mouse sacrificed day J+22, one injection J+5, non-treated mouse 77) was 35. For the same molecule, the ILS % (L 1210 leukemia; 10^3 cells, 0.1 mg/mouse) was 15.4%, the MTS (L 1210 leukemia; 10^3 cells, 0.1 mg/mouse) was 15 and the “Number of surviving mice” value (L 1210 leukemia; 10^3 cells, 0.1 mg/mouse) was 4. The ILS % (L 1210 leukemia; 10^3 cells, 0.2 mg/mouse) was 25.4%, the MTS (L 1210 leukemia; 10^3 cells, 0.2 mg/mouse) was 16.3 and the “Number of surviving mice” value (L 1210 leukemia; 10^3 cells, 0.2 mg/mouse) was 7. The ILS % (L 1210 leukemia; 10^4 cells, 0.1 mg/mouse) was 65.1%, the MTS (L 1210 leukemia; 10^4 cells, 0.1 mg/mouse) was 18 and the “Number of surviving mice” value (L 1210 leukemia; 10^4 cells, 0.1 mg/mouse) was 1. For the same molecule, the “activity against L1210 leukemia (in words)” value (L1210 leukemia [4]; Table XIII summary) was “the compound the most active on the mice”, the ILS % (L1210 leukemia [4]; day +1) was 69.2% and the “Survivors up to 60 days” value (L1210 leukemia [4]; day +1) was 1. For the same molecule, the MST (L1210 leukemia [4]; day +1, control MST 8.8) was 14.9, the Range of death (L1210 leukemia [4]; day +1, control MST 8.8) was 12-18 and the ILS % (L1210 leukemia [4]; day +4) was 65.6%. For the same molecule, the “Survivors up to 60 days” value (L1210 leukemia [4]; day +4) was 0, the MST (L1210 leukemia [4]; day +4, control MST 11.2) was 18.5 and the Range of death (L1210 leukemia [4]; day +4, control MST 11.2) was 14-32.
